What all share (assay type): biochemical
Holding throughout (conditions): acryloyl-CoA made in situ by D. shibae PrpE from 0.5 mM acrylate, CoA and ATP; 1 uM RdAcuH, 5 min, 5 mM MgCl2, 100 mM Tris-HCl pH 8.0

The target of experiment [1] is T1, RdAcuH (Roseovarius nubinhibens, UniProt A3SKA6).
T1 construct: gene ISM_05820; no signal peptide; pET-22b (NdeI/XhoI) in E. coli BL21(DE3), Ni-NTA purified; active site between NTD of one subunit and CTD of the neighbouring subunit
T1 sequence (A3SKA6 1-258): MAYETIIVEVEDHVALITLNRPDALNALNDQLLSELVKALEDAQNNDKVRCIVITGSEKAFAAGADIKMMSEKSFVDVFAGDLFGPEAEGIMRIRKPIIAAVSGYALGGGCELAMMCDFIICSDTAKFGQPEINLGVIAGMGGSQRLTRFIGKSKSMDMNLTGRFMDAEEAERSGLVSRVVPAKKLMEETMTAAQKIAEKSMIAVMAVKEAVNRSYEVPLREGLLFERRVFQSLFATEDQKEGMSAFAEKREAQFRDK
The experiment in a line: HPLC / LC-MS of hydration to 3-HP-CoA.

The target in experiment [2] is T2, RdAcuH (Roseovarius nubinhibens, UniProt A3SKA6, E132A).
T2 construct: gene ISM_05820; no signal peptide; pET-22b (NdeI/XhoI) in E. coli BL21(DE3), Ni-NTA purified; active site between NTD of one subunit and CTD of the neighbouring subunit
T2 sequence (A3SKA6 entry or part of it E132A): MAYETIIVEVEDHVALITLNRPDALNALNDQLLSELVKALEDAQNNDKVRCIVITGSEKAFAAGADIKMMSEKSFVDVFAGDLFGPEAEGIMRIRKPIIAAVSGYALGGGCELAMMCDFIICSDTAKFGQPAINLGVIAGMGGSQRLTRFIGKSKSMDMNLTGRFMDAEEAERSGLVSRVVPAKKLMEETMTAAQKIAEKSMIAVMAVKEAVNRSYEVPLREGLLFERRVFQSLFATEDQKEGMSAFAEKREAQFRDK
The experiment in a line: relative activity, 3-HP-CoA formation by HPLC / LC-MS.

Experiment [3] deals with T3, RdAcuH (Roseovarius nubinhibens, UniProt A3SKA6, E112A).
T3 construct: gene ISM_05820; no signal peptide; pET-22b (NdeI/XhoI) in E. coli BL21(DE3), Ni-NTA purified; active site between NTD of one subunit and CTD of the neighbouring subunit
T3 sequence (A3SKA6 entry or part of it E112A): as the sequence (A3SKA6 entry or part of it E132A) above, with E112A, A132E counted along it
The experiment is described as above.

In the case of `CC(C)(COP(=O)(O)OP(=O)(O)OC[C@H]1O[C@@H](n2cnc3c(N)ncnc32)[C@H](O)[C@@H]1OP(=O)(O)O)[C@@H](O)C(=O)NCCC(=O)NCCSC(=O)CCO` [3-HP-CoA], at RdAcuH [1], the “HPLC / LC-MS of hydration to 3-HP-CoA” value is “RdAcuH has acryloyl-CoA hydratase activity and can catalyze acryloyl-CoA to 3-HP-CoA”.

For `C=CC(=O)SCCNC(=O)CCNC(=O)[C@H](O)C(C)(C)COP(=O)(O)OP(=O)(O)OC[C@H]1O[C@@H](n2cnc3c(N)ncnc32)[C@H](O)[C@@H]1OP(=O)(O)O` [acryloyl-CoA], the “HPLC / LC-MS of hydration to 3-HP-CoA” value on RdAcuH [1] is “acryloyl-CoA was hydrated by RdAcuH and 3-HP-CoA was produced”. For the same molecule, the relative activity result at RdAcuH [2] and at RdAcuH [3] was “mutations on each of the glutamates to alanine resulted in the inactivation of RdAcuH” in each case.

(Values after PMC5651017, “Molecular Insight into the Acryloyl-CoA Hydration by AcuH for Acrylate Detoxification in Dimethylsulfoniopropionate-Catabolizing Bacteria” (Frontiers in Microbiology, 2017).)
